The results in this text go back to paper PMC3283556, “The Activities of Current Antimalarial Drugs on the Life Cycle Stages of Plasmodium: A Comparative Study with Human and Rodent Parasites” (PLoS Medicine, 2012).

Data set [1] deals with P. yoelii liver stage parasites (liver schizonts). In words: P. yoelii liver stage assay in HepG2 cells (EEF immunofluorescence). Format: cell-based, Plasmodium yoelii. Particulars: for IC50: Plasmodium yoelii. How it is done:
(§1) 7.5×10^3 HepG2 cells in 50 µl of medium (1.5×10^5 cells/ml) were seeded in 384 well plates (Aurora 384 IQ-EB Black/Clear Plates) 20–26 h prior to the actual infection. 2 h prior to infection, 50 nl of compound in DMSO (0.1% final DMSO concentration per well) were transferred with a PinTool (GNF Systems) into the assay plates (10 µM final concentration). P. yoelii sporozoites were freshly dissected from infected A. stephensi mosquito salivary glands and filtered twice with a 40-µm strainer. The HepG2 cells were then infected with 8×10^3 sporozoites per well. After infection and 1-h incubation at 37°C, the cultures were washed, new media and compound added, and further incubated with 5-fold increased concentration of penicillin/streptomycin for 48 h at 37°C before exoerythrocytic forms (EEFs) quantification of infected cells by immunofluorescence.
After washing with 1×PBS and fixation of the cells with 4% paraformaldehyde solution (EMS), membranes were permeabilised with 0.5% Triton-X-100 (Thermo Fisher Scientific) and EEFs were stained using a mouse polyclonal serum raised against the Plasmodium heat shock protein 70 (HSP70), an Alexa goat antimouse IgG, Fca-specific DyLight 649 secondary antibody (Invitrogen), and the Hoechst 33342 nucleic acid dye (Invitrogen). Stained EEFs were then quantified using the Opera Confocal High Content Screening system (PerkinElmer). Images were collected using a 20× magnification at a binning of 2 using a 365 Xeon arc lamp illumination to detect the nuclei and 635-nm laser line to excite DyLight649.
(§2) High-content imaging of infected HepG2-CD81 cells was performed as described in Meister et al.. Wells were analysed using a custom Acapella (PerkinElmer) script parameterized for this assay. In brief, images from fields inside the well were first discarded as out of focus when the intensity in the nuclear area was too low. Then hepatic cells were counted by detecting the nuclei labelled with Hoechst 33342 and parasites were segmented using the HSP70 immuno-labelling. Morphology-based (e.g., area, roundness) and intensity-based features were calculated for each object detected including the hepatocyte nuclei and the parasites. Parasitemia was set as the ratio between parasite number (Alexa fluor positive) and the hepatocyte nuclei count, determined at the same time.
(§3) When an infected mosquito bites a host, ∼100 sporozoites may be injected into the dermis from where they rapidly invade liver cells,[33]. This infective step represents the second bottleneck during transmission and therefore another potentially vulnerable point for intervention. In the absence of a practical liver stage assay measuring the formation of P. falciparum/P. vivax liver schizonts, an equivalent assay was developed in P. yoelii and used to assess the activity of the collection of molecules against this specific stage. Specifically, P. yoelii sporozoites were dissected from the salivary glands of infected mosquitoes and were allowed to invade human hepatocarcinoma cells expressing the CD81 protein. The development of the liver schizonts was monitored by immunofluorescence staining using an HSP70 antibody specific to the parasite (Figure 4A).
Figure 4 Validation and results of anti-infectives tested against P. yoelii liver stage parasites. (A) Opera-generated images from a time point experiment using a 20× objective lens. P. yoelii parasites (red) were visualized using a mouse polyclonal HSP70 antibody, and the HepG2 cells (green) were stained with Hoechst 33342 nucleic acid dye. […] (B) A dose response plot with atovaquone from data generated from the Opera imaging system. The median areas of compound-treated parasites were compared to untreated DMSO controls to determine the degree of inhibition.

The test system of data set [2] is Plasmodium oocysts. The data set can be described thus: Oocyst development / sporogony, Plasmodium species not stated at the place. To be noted: Plasmodium; 10 μM; box linked to oocysts; read-out: Inhibition at 10 μM (oocysts, Figure 5). The format is in vivo. How it is done: (§4) Membrane feeds were performed as described previously. Briefly, PbGFPcon-infected mouse blood was mixed with compounds, immediately placed into membrane feeders (39°C) and offered for 30 min to 80–100 overnight-starved A. stephensi (SDA 500 strain). After 7–9 d at 19°C/80%RH, mosquito midguts were dissected out. Midguts were fixed with paraformaldehyde and oocyst number was determined microscopically by semi-automated analysis as previously described.
Gametocyte cultures were produced according to the same protocol as the Pf exflagellation assay. Pooled gametocyte cultures were evenly divided between compounds in fresh medium and incubated at 37°C for 24 h. The parasite pellets were then resuspended in fresh RBCs and human serum treated with the compounds to a 50% haematocrit and immediately fed to mosquitoes as described above and then maintained at 27°C/60%RH for 10–12 d before dissection and counting. […]

Data set [3] has as its system HepG2 cells. The data set can be described thus: Growth retardation of HepG2 cells. To be noted: for IC50: Homo sapiens, HepG2, read-out: IC50 HepG2; for CI (cytotoxicity index): IC50 HepG2 compared to IC50 parasite. How it is done:
as §1, §2, §3

In data set [4] the test system is P. falciparum mature gametocytes / male gamete exflagellation. The data set can be described thus: P. falciparum exflagellation assay. To be noted: for effect on exflagellation (words): 10 µM, 24 h exposure of mature gametocytes; for inhibition at 10 µM: Plasmodium falciparum. The format is cell-based, Plasmodium falciparum. How it is done:
After 24 h, exflagellation was triggered by a temperature decrease to ∼21°C and observed 20 min later under the microscope. Highly motile exflagellation centres were recorded for ∼50–150 adjacent fields of view and reported per 10,000 RBCs.
(§5) (A) Assays examined exflagellation (P. falciparum), ookinete formation (P. berghei), or oocyst formation (P. falciparum). All antimalarials were screened at 10 µM. (B) The biological content of the in vitro P. berghei ookinete assay spans gamete formation, fertilization, zygote development, and ookinete formation. […] (D) The in vitro P. falciparum exflagellation assay exposes mature gametocytes to antimalarials for 24 h before triggering exflagellation. […] All experiments in triplicate. (E) The in vivo P. falciparum oocyst assay differs from the P. berghei oocyst assay in that mature gametocytes were exposed to the antimalarials in culture for 24 h before feeding to mosquitoes.

Data set [5] concerns P. berghei ookinete formation. In words: P. berghei ookinete development assay. To be noted: for effect on ookinete formation: 10 µM; for IC50 / inhibition at 10 µM: Plasmodium berghei; for IC50: read-out: IC50 ookinete formation; for inhibition at 10 µM: read-out: Inhibition at 10 μM (ookinete, Figure 5). The format is cell-based, Plasmodium berghei. How it is done:
Compounds and P. berghei gametocyte-infected blood were dispensed in a 96-well plate containing ookinete medium. After 24 h at 19°C, Giemsa-stained ookinetes were counted under the microscope (×40) as previously described,[28].
as §5, with “Figure 3 The transmission-blocking potential of selected antimalarials in three bioassays that cover different phases of Plasmodium vector stage development. (A)” for “(A)”, “formation. Ookinete formation was insensitive to most of the antimalarials tested.” for “formation.”, “mosquitoes. […] NPC1161-B, lumefantrine, halofantrine, and mefloquine +RS isomer were also active. (n = 4–61 observations; average ± standard error of the mean [SEM]).” for “mosquitoes.”

For data set [6], the system named is P. berghei oocyst formation. In words: Standard membrane feed assay, P. berghei oocysts in A. stephensi. Format: in vivo, Plasmodium berghei. To be noted: 10 µM. How it is done: as §4
Supplementary file pmed.1001169.s001.tif: Figure S1 The transmission-blocking potential of selected compounds against P. berghei in standard membrane feeding assays. All antimalarials were screened at 10 µM in triplicate in independent experiments. The biological content of this assay spans gamete formation through to occyst development all within the gut of the mosquito. […] (TIF) Click here for additional data file.

For data set [7], the system named is P. falciparum asexual blood stage parasites (strains NF54, D6, K1, W2, 7G8, TM90C2A, V1/S). In words: [3H]-hypoxanthine incorporation growth inhibition assay, asexual blood stage. The format is cell-based, Plasmodium falciparum. To be noted: Plasmodium falciparum. How it is done: In vitro antimalarial activity was measured using the [^3H]-hypoxanthine incorporation assay with various strains of P. falciparum obtained from MR4. Results were expressed as the concentration resulting in 50% inhibition (IC50).
The half-maximal inhibitory concentrations (IC50) were determined for each molecule (Table S2).
Figure 2 The potencies of selected antimalarials against asexual blood stages. Main classes of antimalarials were tested against the blood stage of seven Plasmodium falciparum strains in the [^3H]hypoxanthine incorporation assay as described in Vennerstrom et al.. The strains tested here (obtained from MR4) were two drug-sensitive strains NF54 and D6 and five drug-resistant strains: K1, resistant to chloroquine (CQ) and pyrimethamine (PYR), origin Thailand, carries mutations in genes pfmdr1, pfcrt, pfdhfr, pfdhps; W2, resistant to CQ, PYR, quinine, cycloguanil, and sulfadoxine, origin Vietnam; 7G8, resistant to CQ and PYR, origin Brazil; TM90C2A, resistant to CQ, PYR, and MFQ, origin Thailand; and V1/S, resistant to CQ, PYR and cycloguanil, origin Vietnam. Results are expressed as the concentration resulting in 50% growth inhibition (IC50).Values are means of ≥3 independent experiments. (A) Endoperoxides. (B) 4-AQs. (C) 8-AQs and amino alcohols. (D) Antifolates, antibiotics, and others.

[8] abbreviates: HepG2, read-out: IC50 (liver schizont, Figure 5).
The mark [9] stands for this setting: HepG2, read-out: IC50 liver stage.
Where [10] appears, read: read-out: Inhibition at 10 μM (gametocytes/exflagellation, Figure 5).

Molecules are shown by their SMILES. “Also recorded” adds a separate entry of the source. Read-outs that look alike come from different tables or passages of the source. A value given as a limit tells only on which side of the number the result lay.

Usually IC50 stands for the concentration at which inhibition is half-maximal.

Regarding `C[C@H]1[C@@H](O)O[C@@H]2O[C@@]3(C)CC[C@H]4[C@H](C)CC[C@@H]1[C@@]24OO3` [DHA, dihydroartemisinin], the half-maximal inhibitory concentration (IC50) in data set [1] (HepG2, box linked to liver schizont, read-out: IC50 (liver schizont, Figure 5)) was less than 1000 nM. The inhibition at 10 µM in data set [2] is greater than 90%.

Regarding `CC(C)(N)CNC(=O)C[C@H]1CC[C@]2(CC1)OO[C@]1(O2)C2CC3CC(C2)CC1C3` [OZ277], the 50% inhibitory concentration (IC50) in data set [1] (HepG2, development of P. yoelii liver schizonts following infection of HepG2 cells, read-out: IC50 Parasite) came out at 1690 ± 1220 nM; in data set [3] it was 7400 ± 5130 nM. In addition, in data set [3], the “CI (cytotoxicity index)” value came to 4.38. Further, the “effect on exflagellation (words)” value in data set [4] is listed as “inhibited exflagellation totally”. Besides, the inhibition at 10 µM is greater than 60% in data set [4] (10 μM, box linked to gametocytes/exflagellation, read-out: Inhibition at 10 μM (gametocytes/exflagellation, Figure 5)) and greater than 90% in data set [2].

With `CCCCC[C@@H]1CN[C@H](C(=O)N[C@@H]([C@H]2O[C@H](SC)[C@H](O)[C@@H](O)[C@H]2O)[C@H](C)Cl)C1` [cis-mirincamycin], the “effect on ookinete formation” value in data set [5] is reported as “enhancement of ookinete formation that was not statistically significant”.

Take `C[C@@H]1C[C@@H]([C@H](O)CC2CC(=O)NC(=O)C2)C(=O)[C@@H](C)C1` [cycloheximide]: the IC50 in data set [1] (setting [8]) is less than 1000 nM; in data set [1] (HepG2, read-out: IC50 Parasite) it was 150 ± 10 nM; in data set [1] (setting [9]), less than 200 nM; in data set [3], 920 ± 290 nM; in data set [5] it was 25 nM. Besides, the “transmission-blocking effect on P. berghei oocysts (words)” value in data set [6] is on record as “most notable transmission-blocking activity”. Further, the “effect on growth of HepG2-CD81 cells” value in data set [3] was “retarded the growth of HepG2-CD81 cells”. Further, the “CI (cytotoxicity index)” value in data set [3] is 6.13. Further, the “effect on ookinete formation” value in data set [5] was “strongly inhibited ookinete formation”. Also, the inhibition at 10 µM in data set [5] is greater than 80%; in data set [4] (setting [10]), greater than 60%. Further, the “effect on exflagellation (words)” value in data set [4] is “inhibited exflagellation totally; also recorded: Inhibition of exflagellation”.

As for `O=CN(O)CCCP(=O)(O)O` [fosmidomycin], the “effect on ookinete formation” value in data set [5] was “enhancement of ookinete formation that was not statistically significant”.

With `COc1cc(C)c2c(Oc3cccc(C(F)(F)F)c3)c(OC)cc(NC(C)CCCN)c2n1` (centres unmarked) [tafenoquine], the IC50 in data set [7] (strain 7G8) was roughly 50 nM; in data set [7] (strain NF54), roughly 500 nM. Also, the “effect on ookinete formation” value in data set [5] is “enhancement of ookinete formation that was not statistically significant”.

In the case of `C=C(NC(=O)C(=C)NC(=O)c1csc(C2=N[C@@H]3c4csc(n4)[C@H]4NC(=O)c5csc(n5)[C@H]([C@](C)(O)[C@@H](C)O)NC(=O)[C@H]5CSC(=N5)/C(=C/C)NC(=O)[C@H]([C@@H](C)O)NC(=O)c5csc(n5)[C@]3(CC2)NC(=O)[C@H](C)NC(=O)C(=C)NC(=O)[C@H](C)NC(=O)[C@H]([C@@H](C)CC)N[C@@H]2C=Cc3c([C@H](C)O)cc(nc3[C@H]2O)C(=O)O[C@@H]4C)n1)C(N)=O` [thiostrepton], the IC50 was less than 1000 nM in data set [1] (setting [8]); 180 ± 50 nM in data set [1] (HepG2, read-out: IC50 Parasite); less than 200 nM in data set [1] (setting [9]); 180 ± 20 nM in data set [3]; 8000 nM in data set [5]. Moreover, the “potency range against liver stages” value in data set [1] (dose response) was “submicromolar potencies”. Besides, the “effect on growth of HepG2-CD81 cells” value in data set [3] is recorded as “retarded the growth of HepG2-CD81 cells”. Also, in data set [3], the “CI (cytotoxicity index)” value is 1.0. Also, the “effect on ookinete formation” value in data set [5] is “strongly inhibited ookinete formation”. The inhibition at 10 µM in data set [5] is greater than 80%; in data set [4] (24 h, read-out: inhibition of exflagellation), greater than 80%; in data set [4] (setting [10]), greater than 60%. Further, the “effect on exflagellation (words)” value in data set [4] is reported as “Inhibition of exflagellation”.
